Experimental data as given in US20190117653A1, “SYSTEMS AND METHODS FOR TREATING BACTERIAL INFECTION” (priority 2016, published 2019).
In brackets after ≈: the same amount, converted by molar mass. Like-named read-outs stand apart in the source and are kept apart here.

Key:
Assay in all cases: MIC with/without bovine pulmonary surfactant
Assay type in all cases: cell-based
[1] = test system: S. aureus Clinical Isolate 825189; settings: Staphylococcus aureus
Procedure: (§1) Antibacterial susceptibility testing was measured by JMI Labs (North Liberty, Iowa, USA). […] These clinical isolates were collected from US (n=4), Mexico (n=2), and Italy (n=1). Susceptibility testing was performed by broth microdilution in accordance with the Clinical and Laboratory and Standards Institute (CLSI) guidelines M07-A10 (2015) and the standard operating procedures at JMI laboratories. Minimum inhibitory concentrations (MICS) were based on CLSI criteria (2015). There are no published breakpoints for iclaprim. E. coli, K. pneumoniae, M. catarrhalis, E. faecalis, and S. aureus were tested in cation-adjusted Mueller-Hinton broth (CA-MHB). S. pneumoniae were tested in CA-MHB supplemented with 2.5-5% lysed horse blood, and H. influenza were tested in Haemophilus test medium. Quality control and interpretation of results were performed in accordance with CLSI M100-S26 (2016) methods. QC ranges for iclaprim were those approved by CLSI and published in M100-S26 (2016). Iclaprim and comparator antibiotic MIC results were within the CLSI published ranges against E. coli ATCC 25922, E. faecalis ATCC 29212, E. faecalis ATCC 33186, H. influenzae ATCC 49247, K. pneumoniae ATCC 700603 (ESBL phenotype), S. aureus ATCC 29213, and S. pneumoniae ATCC 49619. Isolates were tested with MIC panels (ThermoFisher Scientific, Cleveland, Ohio, USA) of comparator antibiotics (daptomycin and levofloxacin).
(§2) Because bovine pulmonary surfactant can introduce cloudiness to the MIC testing media, antimicrobial growth inhibition was also evaluated using the colorimetric metabolic indicator resazurin (Camlab Ltd., Cambridge, UK). […] S. pneumoniae panels were omitted from resazurin analysis because the color change was obscured by the lysed horse blood present in the test medium. Growth inhibition was then evaluated as a visible color change from blue (no growth) to pink (robust growth) and recorded as a MIC1z value.
(§3) The MICs of iclaprim, levofloxacin, and daptomycin were determined against Gram-positive and Gram-negative isolates.
(§4) A new vial of bovine pulmonary surfactant (BPS; Survanta®; Abbott Laboratories, Columbus, Ohio) was utilized for each independent experiment. Each vial was mixed thoroughly and a 100 μL aliquot was spread on an agar plate, which was incubated overnight to confirm sterility. […] The concentration of surfactant was expressed in terms of percent volume of Survanta® suspension, which consisted of phospholipid (25 mg/mL) and surfactant proteins (<1 mg/mL) in 0.9% sodium chloride solution (Goerke, 1998). MICs of daptomycin were determined in CAMHB with the Ca^2+ content adjusted to 50 mg/L.

H. influenzae ATCC 49247 = settings: Haemophilus influenzae
Procedure: as §1, §2, §3, §4

E. faecalis ATCC 29212 = settings: Enterococcus faecalis
Procedure: as §1, §2, §3, §4

E. coli ATCC 25922 = settings: Escherichia coli
Procedure: as §1, §2, §3, §4

[2] = test system: M. catarrhalis Clinical Isolate 893806; settings: Moraxella catarrhalis, 2.5% v/v BPS, read-out: MIC, Resazurin: +BPS
Procedure: as §1, §2, §3, §4

E. faecalis ATCC 33186 = settings: Enterococcus faecalis
Procedure: as §1, §2, §3, §4

S. aureus ATCC 29213 = settings: Staphylococcus aureus
Procedure: as §1, §2, §3, §4

COc1cc(Cc2cnc(N)nc2N)c2c(c1OC)OC(C1CC1)C=C2 (racemic) [Iclaprim]
MIC ([1]; 2.5% v/v BPS, read-out: MIC, CLSI: +BPS): 0.12 µg/mL (≈ 0.339 µM) | MIC ([1]; 2.5% v/v BPS, read-out: MIC, Resazurin: +BPS): 0.12 µg/mL (≈ 0.339 µM) | MIC ([1]; no BPS, read-out: MIC, CLSI): 0.06 µg/mL (≈ 0.169 µM) | MIC ([1]; no BPS, read-out: MIC, Resazurin): 0.06 µg/mL (≈ 0.169 µM) | MIC (H. influenzae ATCC 49247; ATCC49247, 2.5% v/v BPS, read-out: MIC, Resazurin: +BPS): 0.25 µg/mL (≈ 0.705 µM) | MIC (H. influenzae ATCC 49247; ATCC49247, no BPS, read-out: MIC, Resazurin): 0.25 µg/mL (≈ 0.705 µM) | MIC (E. faecalis ATCC 29212; ATCC29212, 2.5% v/v BPS, read-out: MIC, Resazurin: +BPS): ≤ 0.015 µg/mL | MIC (E. faecalis ATCC 29212; ATCC29212, no BPS, read-out: MIC, Resazurin): ≤ 0.015 µg/mL | MIC (E. coli ATCC 25922; ATCC25922, 2.5% v/v BPS, read-out: MIC, CLSI: +BPS): 0.5 µg/mL (≈ 1.41 µM) | MIC (E. coli ATCC 25922; ATCC25922, 2.5% v/v BPS, read-out: MIC, Resazurin: +BPS): 1 µg/mL (≈ 2.82 µM) | MIC (E. coli ATCC 25922; ATCC25922, no BPS, read-out: MIC, CLSI): 0.5 µg/mL (≈ 1.41 µM) | MIC (E. coli ATCC 25922; ATCC25922, no BPS, read-out: MIC, Resazurin): 1 µg/mL (≈ 2.82 µM) | MIC [2]: 8 µg/mL (≈ 22.6 µM) | MIC (E. faecalis ATCC 33186; ATCC33186, 2.5% v/v BPS, read-out: MIC, Resazurin: +BPS): ≤ 0.015 µg/mL | MIC (E. faecalis ATCC 33186; ATCC33186, no BPS, read-out: MIC, Resazurin): 0.03 µg/mL (≈ 0.0846 µM) | MIC (S. aureus ATCC 29213; ATCC29213, 2.5% v/v BPS, read-out: MIC, CLSI: +BPS): 0.06 µg/mL (≈ 0.169 µM) | MIC (S. aureus ATCC 29213; ATCC29213, 2.5% v/v BPS, read-out: MIC, Resazurin: +BPS): 0.06 µg/mL (≈ 0.169 µM) | MIC (S. aureus ATCC 29213; ATCC29213, no BPS, read-out: MIC, CLSI): 0.06 µg/mL (≈ 0.169 µM) | MIC (S. aureus ATCC 29213; ATCC29213, no BPS, read-out: MIC, Resazurin): 0.06 µg/mL (≈ 0.169 µM)
